# Starred links: 1 amine or outer side, 2 acyl side, 3 side chain; linkers in the order of their positions; H or OH if unused. Non-standard residues stand in square brackets, D forms with d. Residues, ends and D or L forms follow the SMILES beside them. X2 = O=C(c1cc(CN[*:1])cc(Cc2ccc(O)cc2)c1)[*:2]; X1 = O=C(c1cc(Cc2ccc(O)cc2)cc(N[*:1])c1)[*:2]
# Molecular target: Type-2 angiotensin II receptor (Sus scrofa)
# Assay: Binding affinity for angiotensin II receptor, type 2 in pig uterus myometrium using [125I]-Ang II as radioligand, in pH 7.4 Tris-HCl buffer for 1.5 hr at 25 degree C
row,Ki,Structure (SMILES)
1,1.85 nM,CC(C)[C@H](NC(=O)[C@H](CCCNC(=N)N)NC(=O)[C@@H](N)CC(=O)O)C(=O)NCc1cc(Cc2ccc(O)cc2)cc(C(=O)N[C@@H](Cc2cnc[nH]2)C(=O)N2CCC[C@H]2C(=O)N[C@@H](Cc2ccccc2)C(=O)O)c1 [(S)-3-Amino-N-((S)-1-{1-[(S)-3-[2-[2-((S)-(S)-1-carboxy-2-phenyl-ethylcarbamoyl)-pyrrolidin-1-yl]-1-(3H-imidazol-4-ylmethyl)-2-oxo-ethylcarbamoyl]-5-(4-hydroxy-benzyl)-benzylcarbamoyl]-2-methyl-propylcarbamoyl}-4-guanidino-butyl)-succinamic acid] (H-DRV[X2]HPF-OH)
2,41.3 nM,N=C(N)NCCC[C@H](NC(=O)[C@@H](N)CC(=O)O)C(=O)Nc1cc(Cc2ccc(O)cc2)cc(C(=O)N[C@@H](Cc2cnc[nH]2)C(=O)N2CCC[C@H]2C(=O)N[C@@H](Cc2ccccc2)C(=O)O)c1 [(S)-3-Amino-N-{(S)-1-[3-[(S)-2-[2-((S)-(S)-1-carboxy-2-phenyl-ethylcarbamoyl)-pyrrolidin-1-yl]-1-(3H-imidazol-4-ylmethyl)-2-oxo-ethylcarbamoyl]-5-(4-hydroxy-benzyl)-phenylcarbamoyl]-4-guanidino-butyl}-succinamic acid] (H-DR[X1]HPF-OH)
3,10.1 nM,N=C(N)NCCC[C@H](NC(=O)[C@@H](N)CC(=O)O)C(=O)NCc1cc(Cc2ccc(O)cc2)cc(C(=O)N[C@@H](Cc2cnc[nH]2)C(=O)N2CCC[C@H]2C(=O)N[C@@H](Cc2ccccc2)C(=O)O)c1 [(S)-3-Amino-N-{(S)-1-[3-[(S)-2-[2-((S)-(S)-1-carboxy-2-phenyl-ethylcarbamoyl)-pyrrolidin-1-yl]-1-(3H-imidazol-4-ylmethyl)-2-oxo-ethylcarbamoyl]-5-(4-hydroxy-benzyl)-benzylcarbamoyl]-4-guanidino-butyl}-succinamic acid] (H-DR[X2]HPF-OH)
4,9.8 nM,CC(C)[C@H](NC(=O)[C@H](CCCNC(=N)N)NC(=O)[C@@H](N)CC(=O)O)C(=O)Nc1cc(Cc2ccc(O)cc2)cc(C(=O)N[C@@H](Cc2cnc[nH]2)C(=O)N2CCC[C@H]2C(=O)N[C@@H](Cc2ccccc2)C(=O)O)c1 [(S)-3-Amino-N-((S)-1-{(S)-1-[(S)-3-[2-[2-((S)-(S)-1-carboxy-2-phenyl-ethylcarbamoyl)-pyrrolidin-1-yl]-1-(3H-imidazol-4-ylmethyl)-2-oxo-ethylcarbamoyl]-5-(4-hydroxy-benzyl)-phenylcarbamoyl]-2-methyl-propylcarbamoyl}-4-guanidino-butyl)-succinamic acid] (H-DRV[X1]HPF-OH)
